Test results as given in EP4585587A1, “PROPIONIC ACID DERIVATIVE AND USE THEREOF IN MEDICINE” (priority 2022, dated 2024).
Counter-ions that a name gives are not always drawn. Like-named read-outs stand apart in the source and are kept apart here.

Columns and labels:
integrin α4β7 = target: T1, integrin α4β7 (Homo sapiens, UniProt P13612+P26010); test: Integrin α4β7 cell adhesion assay (RPMI8866 cells on MAdCAM-1); assay type: cell-based
T1 sequence (P13612 34-1032): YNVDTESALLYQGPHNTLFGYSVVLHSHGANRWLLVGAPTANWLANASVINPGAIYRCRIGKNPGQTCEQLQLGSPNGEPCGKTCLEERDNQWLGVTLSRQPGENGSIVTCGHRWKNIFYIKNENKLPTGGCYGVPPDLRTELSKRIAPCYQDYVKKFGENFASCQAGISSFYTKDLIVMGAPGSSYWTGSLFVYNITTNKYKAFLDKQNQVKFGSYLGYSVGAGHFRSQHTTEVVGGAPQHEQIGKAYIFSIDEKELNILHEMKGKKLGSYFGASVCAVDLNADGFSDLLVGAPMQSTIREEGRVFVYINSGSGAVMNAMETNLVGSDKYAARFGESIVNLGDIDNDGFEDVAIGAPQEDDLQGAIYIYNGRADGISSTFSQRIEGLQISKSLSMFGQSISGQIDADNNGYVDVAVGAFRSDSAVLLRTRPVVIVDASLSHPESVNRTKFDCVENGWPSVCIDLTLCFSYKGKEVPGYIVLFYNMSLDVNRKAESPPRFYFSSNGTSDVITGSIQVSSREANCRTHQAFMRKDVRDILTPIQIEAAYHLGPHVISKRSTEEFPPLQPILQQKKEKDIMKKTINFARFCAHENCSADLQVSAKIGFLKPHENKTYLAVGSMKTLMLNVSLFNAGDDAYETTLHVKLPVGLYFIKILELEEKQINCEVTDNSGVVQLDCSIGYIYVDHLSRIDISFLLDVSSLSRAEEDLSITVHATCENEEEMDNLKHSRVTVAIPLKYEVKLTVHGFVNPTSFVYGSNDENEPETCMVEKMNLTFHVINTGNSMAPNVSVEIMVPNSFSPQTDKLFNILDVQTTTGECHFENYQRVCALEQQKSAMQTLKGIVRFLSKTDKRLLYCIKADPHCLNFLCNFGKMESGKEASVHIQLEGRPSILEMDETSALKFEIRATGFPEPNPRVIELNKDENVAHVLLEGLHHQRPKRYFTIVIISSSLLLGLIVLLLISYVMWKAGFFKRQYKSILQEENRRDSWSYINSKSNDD
T1 sequence (P26010 20-798): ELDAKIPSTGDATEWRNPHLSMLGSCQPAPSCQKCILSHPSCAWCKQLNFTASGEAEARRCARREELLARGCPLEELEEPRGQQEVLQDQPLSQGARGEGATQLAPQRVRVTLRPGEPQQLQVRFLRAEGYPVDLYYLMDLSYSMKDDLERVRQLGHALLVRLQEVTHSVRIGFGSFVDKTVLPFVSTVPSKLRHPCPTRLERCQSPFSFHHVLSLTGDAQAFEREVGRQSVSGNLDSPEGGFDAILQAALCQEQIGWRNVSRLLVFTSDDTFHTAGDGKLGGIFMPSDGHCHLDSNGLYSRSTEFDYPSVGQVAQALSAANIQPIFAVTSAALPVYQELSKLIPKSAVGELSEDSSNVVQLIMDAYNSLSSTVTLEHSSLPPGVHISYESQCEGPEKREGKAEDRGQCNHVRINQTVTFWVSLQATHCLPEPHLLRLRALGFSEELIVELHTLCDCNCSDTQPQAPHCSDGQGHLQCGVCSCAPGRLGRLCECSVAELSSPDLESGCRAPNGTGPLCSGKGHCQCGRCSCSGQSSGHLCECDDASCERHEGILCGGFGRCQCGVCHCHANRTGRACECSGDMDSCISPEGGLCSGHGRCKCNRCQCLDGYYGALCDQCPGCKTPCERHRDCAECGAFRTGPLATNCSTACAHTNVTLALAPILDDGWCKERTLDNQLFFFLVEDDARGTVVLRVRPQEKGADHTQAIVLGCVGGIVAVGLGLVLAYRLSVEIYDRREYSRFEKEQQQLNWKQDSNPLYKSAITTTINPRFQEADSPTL
Protocol: MAdCAM-1 was formulated with TBS buffer to a final concentration of 2 µg/ml, 50 µl of the solution was transferred to a 96-well plate, and the plate was coated with same at 4°C overnight. The plate was washed with TBS buffer three times, then 150 µl of a blocking solution (TBS buffer containing 1% BSA) was added, and the plate was blocked at 37°C for 1 h. […] 50 µl of the cell suspension was transferred to a 96-well plate so that the cell density reached 2×10^5 cells/well. Then 1 µl of the compound at different concentrations or DMSO was added and the plate was incubated at 37°C for 1 h or 2 h. The plate was washed with TBS buffer to remove non-adherent cells. 50 µl of a substrate (4-nitrophenyl-N-acetyl-β-D-glucosaminide) was added and the plate was incubated at 37°C for 2 h. […] The IC50 value was calculated using GraphPad Prism 6 software.

integrin α4β1 = test: Integrin α4β1-mediated cell adhesion assay (Jurkat cells on VCAM); assay type: cell-based
Protocol: VCAM was formulated into a final concentration of 0.5 µg/ml with a coating buffer, 50 µl of the solution was transferred to a 96-well plate, and the plate was coated with same at 4°C overnight. The plate was washed with coating buffer three times, then 150 µl of a blocking solution (coating buffer containing 1% BSA) was added, and the plate was blocked at 37°C for 1 h. Jurkat cells were collected, washed twice using DPBS buffer, and then resuspended to 4 × 10^6 cells/ml with an action buffer. 50 µl of the cell suspension was transferred to a 96-well plate so that the cell density reached 2 × 10^5 cells/well. Then 1 µl of the test compound at different concentration or DMSO was added and the plate was incubated at 37°C for 1 h. The plate was washed with coating buffer to remove non-adherent cells. 50 µl of a substrate (4-nitrophenyl-N-acetyl-β-D-glucosaminide) was added and the plate was incubated at 37°C for 2 h. Finally, 90 µl of a termination solution (50 mM glycine and 5 mM EDTA, pH 10.4) was added. The OD value of the plate was read at 405 nm. • Coating buffer: DMEM+ 20 mM HEPES+ 0.4 mM MnCl2 • Action buffer: DMEM+ 20 mM HEPES+ 0.1% BSA+0.4 mM MnCl2 • DMEM: dulbecco's modified eagle medium; • HEPES: 2-[4-(2-hydroxyethyl)piperazin-1-yl]ethanesulfonic acid Table 1 Results of effects of compounds on α4β7- and α4β1-mediated cell adhesion

[1] = RPMI8866 cells, MAdCAM-1 coated plate, numeric value or bound, read-out: RPMI-8866 (α4β7)/MadCAM-1 IC50
[2] = Jurkat cells, VCAM coated plate; read-out: Jurkat (α4β1)/VCAM-1 IC50
[3] = selectivity ratio of Jurkat (α4β1)/VCAM-1 IC50 to RPMI-8866 (α4β7)/MadCAM-1 IC50
[4] = RPMI8866 cells, MAdCAM-1 coated plate, reported as class symbol, read-out: RPMI-8866 (α4β7)/MadCAM-1 IC50

For `Cc1cc(F)cc(C)c1-c1cc(C(CC(=O)O)NC(=O)[C@H](CC(C)C)n2cc(CC3CN(CC4CC4)C3)c(C(F)(F)F)cc2=O)cc2c1CCC2` (some centres unmarked) [Trifluoroacetate salt of compound 15-2], the IC50 (integrin α4β7; [1]) was < 0.001 µM, the IC50 (integrin α4β1; [2]) was > 0.1 µM and the α4β1/α4β7 (integrin α4β1; [3]) was 272.
`COc1cc(C)c(-c2c(F)c(C(CC(=O)O)NC(=O)C(CC(C)C)n3cc(CCN(C)C)c(C(F)(F)F)cc3=O)c(F)c3c2CCC3)c(C)c1` (single isomer, unassigned) [Trifluoroacetate salt of compound 21-2] showed a α4β1/α4β7 (integrin α4β1; [3]) of 1586.
For `CC#Cc1cc(-c2c(C)cccc2C)c(F)c(C(CC(=O)O)NC(=O)[C@H](CC(C)C)n2cc(CCC3CCCN3C)c(C(F)(F)F)cc2=O)c1F` (some centres unmarked) [Trifluoroacetate salt of compound 29-2], the IC50 (integrin α4β7; [1]) was < 0.001 µM, the IC50 (integrin α4β1; [2]) was > 0.2 µM and the α4β1/α4β7 (integrin α4β1; [3]) was 292.
`Cc1cc(F)cc(C)c1-c1cc(C(CC(=O)O)NC(=O)C(CC(C)C)n2cc(CC3CCN(C(C)C)CC3)c(C(F)(F)F)cc2=O)cc2c1CCC2` (centres unmarked) [Trifluoroacetate salt of compound 22-2] was tested, and the α4β1/α4β7 (integrin α4β1; [3]) was 307.
For `Cc1cc(F)cc(C)c1-c1c(F)c(C(CC(=O)O)NC(=O)[C@H](CC(C)C)n2cc(CC3CN(C(C)C)C3)c(C(F)(F)F)cc2=O)c(F)c2c1CCC2` (some centres unmarked) [Trifluoroacetate salt of compound 32-2], the IC50 (integrin α4β7; [1]) was < 0.001 µM, the IC50 (integrin α4β1; [2]) was > 0.1 µM and the α4β1/α4β7 (integrin α4β1; [3]) was 220.
`CC#Cc1cc(-c2c(C)cccc2C)c(F)c(C(CC(=O)O)NC(=O)C(CC(C)C)n2cc(CCN(C)CC3CC3(F)F)c(C(F)(F)F)cc2=O)c1F` (single isomer, unassigned) [Compound 7-2] was tested, and the IC50 (integrin α4β7; [4]) was < 0.01 µM, the IC50 (integrin α4β1; [2]) was > 0.5 µM and the α4β1/α4β7 (integrin α4β1; [3]) was 182.
`Cc1ccc(F)c(C)c1-c1c(F)c(C(CC(=O)O)NC(=O)[C@H](CC(C)C)n2cc(CCN(C)C)c(C(F)(F)F)cc2=O)c(F)c2c1CCC2` (some centres unmarked) [Trifluoroacetate salt of compound 48-2] was tested, and the IC50 (integrin α4β7; [1]) was < 0.001 µM.
In the case of `CC#Cc1cc(-c2c(C)cccc2C)c(F)c(C(CC(=O)O)NC(=O)C(CC(C)C)n2cc(CC3CN(C(C)C)C3)c(C(F)(F)F)cc2=O)c1F` (single isomer, unassigned) [Trifluoroacetate salt of compound 18-2], the IC50 (integrin α4β7; [4]) is reported as < 0.01 µM, the IC50 (integrin α4β1; [2]) is reported as > 0.5 µM and the α4β1/α4β7 (integrin α4β1; [3]) is reported as 258.
In the case of `CC#Cc1cc(-c2c(C)cccc2C)c(F)c(C(CC(=O)O)NC(=O)C(CC(C)C)n2cc(CC3CN(CC4CC4)C3)c(C(F)(F)F)cc2=O)c1F` (single isomer, unassigned) [Trifluoroacetate salt of compound 19-2], the IC50 (integrin α4β7; [4]) is reported as < 0.01 µM, the IC50 (integrin α4β1; [2]) is reported as > 0.5 µM and the α4β1/α4β7 (integrin α4β1; [3]) is reported as 323.
Work on `COc1cc(C)c(-c2c(F)c(C(CC(=O)O)NC(=O)C(CC(C)C)n3cc(CCN(C)C)c(C(F)(F)F)cc3=O)c(F)c3c2CCC3)c(C)c1` (centres unmarked) [Compound 21-A] yielded a α4β1/α4β7 (integrin α4β1; [3]) of 119.
In the case of `CC#Cc1cc(-c2c(C)cccc2C)c(F)c(C(CC(=O)O)NC(=O)C(CC(C)C)n2cc(CC3CCN(C(C)C)CC3)c(C(F)(F)F)cc2=O)c1F` (single isomer, unassigned) [Trifluoroacetate salt of compound 23-2], the IC50 (integrin α4β7; [4]) is reported as < 0.01 µM, the IC50 (integrin α4β1; [2]) is reported as > 0.5 µM and the α4β1/α4β7 (integrin α4β1; [3]) is reported as 310.
Work on `Cc1cc(F)cc(C)c1-c1c(F)c(C(CC(=O)O)NC(=O)C(CC(C)C)n2cc(CCC3CCN(C)C3)c(C(F)(F)F)cc2=O)c(F)c2c1CCC2` (centres unmarked) [Trifluoroacetate salt of compound 26-2] yielded a α4β1/α4β7 (integrin α4β1; [3]) of 177.
`Cc1cc(F)cc(C)c1-c1cc(C(CC(=O)O)NC(=O)C(CC(C)C)n2cc(CCN(C)CC3CC3(F)F)c(C(F)(F)F)cc2=O)cc2c1CCC2` (single isomer, unassigned) [Compound 1-2] was tested, and the IC50 (integrin α4β7; [4]) was < 0.01 µM and the α4β1/α4β7 (integrin α4β1; [3]) was >50.
For `COc1cc(C)c(-c2c(F)c(C(CC(=O)O)NC(=O)C(CC(C)C)n3cc(CCN(C)C)c(C(F)(F)F)cc3=O)c(F)c3c2CCC3)c(C)c1` (single isomer, unassigned) [Compound 39-2], the IC50 (integrin α4β7) was < 0.01 µM, the IC50 (integrin α4β1; read-out: Jurkat (α4β1)/VCAM-1 IC50; Jurkat cells, VCAM coated plate) was > 0.5 µM and the α4β1/α4β7 (integrin α4β1; [3]) was 213.
`CC#Cc1cc(-c2c(C)cccc2C)c(F)c(C(CC(=O)O)NC(=O)[C@@H](CC(C)C)n2cc(CCN(CC)CC)c(C(F)(F)F)cc2=O)c1F` (some centres unmarked) [Trifluoroacetate salt of compound 12-2] was tested, and the IC50 (integrin α4β7; [1]) was < 0.0005 µM, the IC50 (integrin α4β1; [2]) was > 0.1 µM and the α4β1/α4β7 (integrin α4β1; [3]) was 354.
With `CC#Cc1cc(-c2c(C)cccc2C)c(F)c(C(CC(=O)O)NC(=O)C(CC(C)C)n2cc(CCC3CCN(C)C3)c(C(F)(F)F)cc2=O)c1F` (single isomer, unassigned) [Trifluoroacetate salt of compound 27-2] the IC50 (integrin α4β7; [4]) was < 0.01 µM, the IC50 (integrin α4β1; [2]) was > 0.1 µM and the α4β1/α4β7 (integrin α4β1; [3]) was 133.
For `COc1ccc(C)c(-c2c(F)c(C(CC(=O)O)NC(=O)[C@H](CC(C)C)n3cc(CCN(C)C)c(C(F)(F)F)cc3=O)c(F)c3c2CCC3)c1C` (single isomer, unassigned) [Compound 50-2], the IC50 (integrin α4β7; [4]) was < 0.01 µM.
For `CC#Cc1cc(-c2c(C)cccc2C)c(F)c(C(CC(=O)O)NC(=O)[C@H](CC(C)C)n2cc(CCN3CCC4(CC4)C3)c(C(F)(F)F)cc2=O)c1F` (single isomer, unassigned) [Compound 6-2], the IC50 (integrin α4β7; [4]) was < 0.01 µM.
`Cc1cc(F)cc(C)c1-c1c(F)c(C(CC(=O)O)NC(=O)[C@H](CC(C)C)n2cc(CC3CCN(C4CC4)CC3)c(C(F)(F)F)cc2=O)c(F)c2c1CCC2` (single isomer, unassigned) [Compound 24-2] was tested, and the IC50 (integrin α4β7; [4]) was < 0.01 µM.
In the case of `C#CC1CN(CCc2cn(C(CC(C)C)C(=O)NC(CC(=O)O)c3cc4c(c(-c5c(C)cc(F)cc5C)c3)CCC4)c(=O)cc2C(F)(F)F)C1` (single isomer, unassigned) [Compound 3-2], the IC50 (integrin α4β7; [4]) is reported as < 0.01 µM.
